{
  "source": "patent US4708871A",
  "about": "“Antigenically active amino acid sequences” (priority 1983, dated 1987)",
  "test_system": "antiserum known to react with the original sequence (FMDV Type A10)",
  "format": "binding, rabbit",
  "note": "Where “and” joins values, the source holds several entries; their conditions need not be identical. Equal values may be shown once. No end group written: not given here.",
  "data": [
    {"substance": "GDLGSI [GDLGSI]", "values": [
      {"measurement": "Antibody-binding activity, percentage of the mean activity of the six parent sequences", "result": "105 percentage and 118 percentage and 88 percentage and 98 percentage and 85 percentage and 106 percentage"}
    ]}
  ]
}
